{
  "source": "patent US7795312B2",
  "about": "“Method for treating abdominal discomfort” (Sucampo AG, priority 2002, dated 2010)",
  "format_in_all_cases": "in vivo, human",
  "key": {"[1]": {"system": "patients with irritable bowel syndrome (IBS)", "assay": "Abdominal discomfort score in patients with irritable bowel syndrome", "settings": "for Abdominal discomfort score, Mean ± SD: IBS patients", "procedure": "(§1) Patients with irritable bowel syndrome (IBS) were randomly allocated to the following two treatment groups. • Group 1: Test substance (13,14-dihydro-15-keto-16,16-difluoro-PGE1) 48 μg total (24 μg/breakfast+24 μg/dinner) • Group 2: Matching placebo (placebo/breakfast+placebo/dinner)\n(§2) Each group underwent two weeks washout period and then began to administer oral test substance (capsules) or placebo (capsules) daily for 4 weeks. Test substance or placebo was taken two times a day (b.i.d) at breakfast with food and at least 8 ounces of water and at dinner with food and at least 8 ounces of water. Patients were asked to evaluate abdominal discomfort upon waking in the morning, using a 5-point scale (Score: 0=absent, 1=mild, 2=moderate, 3=severe, 4=very severe) at 4 weeks after the initiation of the treatments."}, "[2]": {"system": "patients with occasional constipation", "assay": "Abdominal discomfort score in patients with occasional constipation", "settings": "for Abdominal discomfort score, Mean ± SD: patients with constipation, oral capsules 48 μg total daily (24 μg b.i.d.), 5-point scale 0-4, p < 0.05 vs placebo", "procedure": "Patients with occasional constipation were randomly allocated to the following two treatment groups. • Group 1: Test substance (13,14-dihydro-15-keto-16,16-difluoro-PGE1) 48 μg total (24 μg/breakfast+24 μg/dinner) • Group 2: Matching placebo (placebo/breakfast+placebo/dinner) Each group underwent two weeks washout period and then began to administer oral test substance (capsules) or placebo (capsules) daily for 4 weeks. During the washout period, the patient's bowel habit was documented to confirm the existence of constipation. Constipation is defined as, on average, less than three spontaneous bowel movements per week. All existing laxative medication was withdrawn at the start of the washout period and the patients were instructed not to change their diet or lifestyle during the study.\nTest substance or placebo was taken orally for a total treatment period of 4 weeks; it was taken two times a day (b.i.d) at breakfast with food and at least 8 ounces of water and at dinner with food and at least 8 ounces of water. […]"}, "[3]": {"system": "patients with irritable bowel syndrome (IBS)", "assay": "Abdominal bloating score in patients with irritable bowel syndrome", "settings": "for Abdominal bloating score, Mean ± SD: IBS patients", "procedure": "as §1\nas §2, with “The patients” for “Patients”, “bloating” for “discomfort”"}, "[4]": {"system": "patients with irritable bowel syndrome (IBS) exhibiting dyschezia", "assay": "Spontaneous bowel movement frequency in patients with IBS exhibiting dyschezia", "settings": "for Spontaneous Bowel Movement Frequency Rates, Mean ± SD: IBS patients exhibiting dyschezia", "procedure": "Each group underwent two weeks washout period and then began to administer oral test substance (capsules) or placebo (capsules) daily for 4 weeks. Test substance or placebo was taken two times a day (b.i.d) at breakfast with food and at least 8 ounces of water and at dinner with food and at least 8 ounces of water. After 3 consecutive days of not having spontaneous bowel movement, the investigator could prescribe to the patient 10 mg bisacodyl suppository as a rescue medication. If this was not effective, Fleet® enema could be used. During the study period, each patient documented bowel activity. A spontaneous bowel movement was defined as any bowel movement except for that occurred within 24 hours after the rescue medication. Frequency of spontaneous bowel movements at Baseline, Weeks 1, 2, 3 and 4 were analyzed."}, "[5]": {"settings": "Baseline, 5-point scale 0=absent to 4=very severe"}, "[6]": {"settings": "Week 4, oral capsules 48 μg total daily (24 μg b.i.d.), 5-point scale 0-4, p < 0.01 vs placebo"}, "[7]": {"settings": "oral 48 μg total daily for 4 weeks"}},
  "data": [
    {"smiles": "CCCCC(F)(F)C(=O)CCC1C(O)CC(=O)C1CCCCCCC(=O)O", "note": "(stereo not shown) [Test Substance, 13,14-dihydro-15-keto-16,16-difluoro-PGE1]", "values": [
      {"measurement": "Abdominal discomfort score, Mean ± SD", "setting": "[1]; [5]", "value": "2.25 ± 0.803"},
      {"measurement": "Abdominal discomfort score, Mean ± SD", "setting": "[1]; [6]", "value": "1.48 ± 1.029"},
      {"measurement": "Effect on abdominal discomfort in patients with IBS", "setting": "[1]; [7]", "value": "significantly improved the abdominal discomfort"},
      {"measurement": "Abdominal discomfort score, Mean ± SD", "setting": "[2]; Week 2", "value": "1.09 ± 1.047 (116)"},
      {"measurement": "Abdominal discomfort score, Mean ± SD", "setting": "[2]; Week 3", "value": "1.27 ± 1.057 (117)"},
      {"measurement": "Abdominal discomfort score, Mean ± SD", "setting": "[2]; Week 4", "value": "1.22 ± 1.060 (117)"},
      {"measurement": "Effect on abdominal discomfort in patients with constipation", "setting": "[2]; [7]", "value": "significantly improved the abdominal discomfort"},
      {"measurement": "Abdominal bloating score, Mean ± SD", "setting": "[3]; [5]", "value": "2.50 ± 0.916 (32)"},
      {"measurement": "Abdominal bloating score, Mean ± SD", "setting": "[3]; [6]", "value": "1.74 ± 0.999 (31)"},
      {"measurement": "Effect on abdominal bloating in patients with IBS", "setting": "[3]; [7]", "value": "significantly improved the abdominal bloating"},
      {"measurement": "Spontaneous Bowel Movement Frequency Rates, Mean ± SD", "setting": "[4]; Baseline", "value": "1.43 ± 0.773 (32)"},
      {"measurement": "Spontaneous Bowel Movement Frequency Rates, Mean ± SD", "setting": "[4]; Week 1, oral capsules 48 μg total daily (24 μg b.i.d.), p < 0.01 vs placebo", "value": "6.50 ± 4.108 (32)"},
      {"measurement": "Spontaneous Bowel Movement Frequency Rates, Mean ± SD", "setting": "[4]; Week 2, oral capsules 48 μg total daily (24 μg b.i.d.), p < 0.01 vs placebo", "value": "5.58 ± 4.003 (32)"},
      {"measurement": "Spontaneous Bowel Movement Frequency Rates, Mean ± SD", "setting": "[4]; Week 3, oral capsules 48 μg total daily (24 μg b.i.d.), p < 0.01 vs placebo", "value": "5.93 ± 4.775 (32)"},
      {"measurement": "Spontaneous Bowel Movement Frequency Rates, Mean ± SD", "setting": "[4]; Week 4, oral capsules 48 μg total daily (24 μg b.i.d.), p < 0.05 vs placebo", "value": "5.17 ± 4.333 (32)"},
      {"measurement": "Effect on spontaneous bowel movement frequency in patients with IBS exhibiting dyschezia", "setting": "[4]; [7]", "value": "significantly improved the spontaneous bowel movement frequency"}
    ]}
  ]
}
